Measurements from US4720489A, “Hair growth modification with ornithine decarboxylase inhibitors” (priority 1984, dated 1988).

Tests used:
[1] = system: brain 4-aminobutyric acid levels; conditions: transformation catalyzed by mitochondrial monoamine oxidase; known secondary pharmacological effect; cited from earlier work
[2] = system: androgen-mediated hair growth in male hamsters (flank organ hair mass); experiment: inhibition of androgen-mediated hair growth in male hamsters following topical application for 21 consecutive days (flank organ hair mass); format: in vivo, hamster; conditions: 500 micrograms in 10 microliters 70% ethanol, regrowth during final ten days
Procedure: Five hundred micrograms of the compound in ten microliters of 70% ethanol was applied topically for 21 consecutive days. Hair mass changes were determined by comparing the regrowth of hair during the final ten days of treatment. […] Furthermore, the magnitude of hair mass inhibition in the hamsters treated with the ODC inhibitor (60%) approached that observed in 21-day castrated hamsters (78%).

[3] = system: ornithine decarboxylase (ODC), flank organ; experiment: flank organ ODC activity after topical application for 21 consecutive days; format: in vivo, hamster; conditions: 500 micrograms in 10 microliters 70% ethanol, versus hamsters castrated for 21 days
[4] = system: flank organ hair mass in adult intact male hamsters; experiment: efficacy of topical compositions in reducing flank organ hair mass in adult intact male hamsters (Tables I and II); format: in vivo, hamster; conditions: 15 days (Mon-Fri) in 21-day interval, versus vehicle controls
Procedure: Summarized below in Tables I and II are the results of two experiments comparing the efficacy of several compositions in reducing the flank organ hair mass in adult intact male hamsters. In each case, hamsters were treated for 15 days (Monday-Friday) during a 21-day interval. Flank organ hairs were epilated on the first day of treatment and re-epilated on the sixth day of treatment. […] The results for percent inhibition shown below are based upon comparisons between the hair mass values of hairs harvested from treated flank organs of experimental animals and those obtained from vehicle-treated control animals.

Flank Organ Hair Mass = experiment: similar series of experiments comparing a variety of compositions, flank organ hair mass (Table III); format: in vivo, hamster; design: Flank Organ Hair Mass, Untreated / Flank Organ Hair Mass, Treated: unit not given here
Procedure: Additional experiments were conducted to test topical regimens composed of a combination of 2(difluoromethyl)-2,5-diaminopentanoic acid along with antiandrogens. […] In each case, hamsters were treated for 15 days (Monday-Friday) during a 21-day interval. Flank organ hairs were epilated on the first day of treatment and re-epilated on the sixth day of treatment. The mass of flank organ hair represents the regrowth during the final 14 days of the 21-day interval.

[5] = Table II, 500 micrograms per square centimeter
[6] = 5 micrograms per square centimeter
[7] = 50 micrograms per square centimeter
[8] = 250 micrograms per square centimeter
[9] = 500 micrograms per square centimeter

C#CC(N)CCCN (stereo not shown) [5-hexyne-1,4-diamine]
brain 4-aminobutyric acid levels [1]: increases in brain 4-aminobutyric acid levels

NCCCC(N)(C(=O)O)C(F)F (stereo not shown) [2(difluoromethyl)-2,5-diaminopentanoic acid]
magnitude of hair mass inhibition [2]: 60% | flank organ ODC activity [3]: reduced to levels found in hamsters castrated for 21 days | % Inhibition (flank organ hair mass) ([4]; Table I, 500 micrograms per square centimeter): 46% | % Inhibition (flank organ hair mass) [4, 5]: 41% | % Inhibition (flank organ hair mass) (Flank Organ Hair Mass; [6]): 2% | % Inhibition (flank organ hair mass) (Flank Organ Hair Mass; [7]): 7% | % Inhibition (flank organ hair mass) (Flank Organ Hair Mass; [8]): 24% | % Inhibition (flank organ hair mass) (Flank Organ Hair Mass; [9]): 33% | Flank Organ Hair Mass, Treated (Flank Organ Hair Mass; [6]): 3.20 | Flank Organ Hair Mass, Treated (Flank Organ Hair Mass; [7]): 2.85 | Flank Organ Hair Mass, Treated (Flank Organ Hair Mass; [8]): 2.29 | Flank Organ Hair Mass, Treated (Flank Organ Hair Mass; [9]): 1.81 | Flank Organ Hair Mass, Untreated (Flank Organ Hair Mass; treatment group 5 micrograms per square centimeter): 3.26 | Flank Organ Hair Mass, Untreated (Flank Organ Hair Mass; treatment group 50 micrograms per square centimeter): 3.05 | Flank Organ Hair Mass, Untreated (Flank Organ Hair Mass; treatment group 250 micrograms per square centimeter): 3.00 | Flank Organ Hair Mass, Untreated (Flank Organ Hair Mass; treatment group 500 micrograms per square centimeter): 2.71

CC(=O)O[C@]1(C(C)=O)CC[C@H]2[C@@H]3C=C(Cl)C4=CC(=O)CC[C@]4(C)[C@H]3CC[C@@]21C [Chloromadinone acetate, chlormadinone acetate]
% Inhibition (flank organ hair mass) [4, 5]: 41%

CC(=O)[C@H]1CC[C@H]2[C@@H]3CCC4=CC(=O)CC[C@]4(C)[C@H]3CC[C@]12C [Progesterone, progesterone]
% Inhibition (flank organ hair mass) ([4]; Table I, 1000 micrograms per square centimeter): 50%
